Laboratory results as given in patent publication US9000025B2, “Autotaxin inhibitors and uses thereof” (Amira Pharmaceuticals, Inc., priority 2010, dated 2015).

Target: T1, autotaxin (ATX) (Homo sapiens, UniProt Q13822)
T1 construct: conditioned medium from the human melanoma cell line, MDA-MB-4355, which endogenously expresses autotaxin; host or cells: MDA-MB-435S human melanoma cells; serum-free conditioned medium, concentrated 20-fold
Assay: Native Autotaxin Choline Release Assay
Format: biochemical
Conditions: autotaxin in conditioned medium from human melanoma cell line; choline released from LPC; read-out: MDA-MB-435S Assay IC50
Procedure: ATX activity is determined by measuring the amount of choline realeased from the substrate, lyosphophatidylcholine (LPC). […] After reaching confluency, the cells are washed twice with phosphate-buffered saline (PBS) then cultured for 48 hours in phenol-red free, serum-free DMEM containing sodium pyruvate. […] 100 μl of a color mix which contains 4.5 mM 4-aminoantipyrine, 2.7 mM N-ethyl-N-(2-hydroxy-3-sulfopropyl)-m-toluidine, 21 units/ml horseradish peroxidase and 3 units/ml choline oxidase in 50 mM Tris, pH 8, 4.5 mM MgCl2 is added and the incubation continued at 37° C. for 10 minutes before reading the absorbance at 555 nm. The concentration of released choline in the sample is determined from a choline standard curve and is equal to the concentration of LPA produced.

Row | IC50 | Compound
1 | < 300 nM | Cc1ccc(-n2c(C)c(Sc3cccc(C(=O)O)c3)c3ccc(Cl)cc32)cn1 [Compound 1-34, 3-[6-Chloro-2-methyl-1-(6-methyl-pyridin-3-yl)-1H-indol-3-ylsulfanyl]-benzoic acid]
2 | < 300 nM | Cc1c(Sc2cccc(CC(=O)O)c2)c2ccc(Cl)cc2n1-c1cccnc1 [Compound 1-35, [3-(6-Chloro-2-methyl-1-pyridin-3-yl-1H-indol-3-ylsulfanyl)-phenyl]-acetic acid]
3 | < 300 nM | CCOc1ccc(-n2c(C)c(Sc3cccc(C(=O)O)c3)c3ccc(Cl)cc32)cn1 [Compound 1-36, 3-[6-Chloro-1-(6-ethoxy-pyridin-3-yl)-2-methyl-1H-indol-3-ylsulfanyl]-benzoic acid]
4 | < 300 nM | COc1cncc(-n2c(C)c(Sc3cccc(C(=O)O)c3)c3ccc(Cl)cc32)c1 [Compound 1-37, 3-[6-Chloro-1-(5-methoxy-pyridin-3-yl)-2-methyl-1H-indol-3-ylsulfanyl]-benzoic acid]
5 | < 300 nM | Cc1c(Sc2cccc(C(=O)O)c2)c2ccc(Cl)cc2n1-c1cncnc1 [Compound 1-38, 3-(6-Chloro-2-methyl-1-pyrimidin-5-yl-1H-indol-3-ylsulfanyl)-benzoic acid]
6 | < 300 nM | Cc1c(Sc2cccc(C(=O)O)c2)c2ccc(Cl)cc2n1-c1cnn(C)c1 [Compound 1-39, 3-[6-Chloro-2-methyl-1-(1-methyl-1H-pyrazol-4-yl)-1H-indol-3-ylsulfanyl]-benzoic acid]
7 | > 1000 nM | COc1ccc(C(=O)O)cc1Sc1c(C)n(-c2cccnc2)c2cc(Cl)ccc12 [Compound 1-40, 3-(6-Chloro-2-methyl-1-pyridin-3-yl-1H-indol-3-ylsulfanyl)-4-methoxy-benzoic acid]
8 | > 1000 nM | COc1ccc(C(=O)O)cc1Sc1c(C)n(-c2cnn(C)c2)c2cc(Cl)ccc12 [Compound 1-41, 3-[6-Chloro-2-methyl-1-(1-methyl-1H-pyrazol-4-yl)-1H-indol-3-ylsulfanyl]-4-methoxy-benzoic acid]
9 | < 300 nM | Cc1c(Sc2cccc(C(=O)O)c2)c2ccc(Cl)cc2n1-c1cnsc1 [Compound 1-42, 3-(6-Chloro-1-isothiazol-4-yl-2-methyl-1H-indol-3-ylsulfanyl)-benzoic acid]
10 | < 300 nM | CCn1cc(-n2c(C)c(Sc3cccc(C(=O)O)c3)c3ccc(Cl)cc32)cn1 [Compound 1-43, 3-[6-Chloro-1-(1-ethyl-1H-pyrazol-4-yl)-2-methyl-1H-indol-3-ylsulfanyl]-benzoic acid]
11 | < 300 nM | Cc1c(Sc2cccc(C(=O)O)c2)c2ccc(Cl)cc2n1-c1cnn(C(C)C)c1 [Compound 1-44, 3-[6-Chloro-1-(1-isopropyl-1H-pyrazol-4-yl)-2-methyl-1H-indol-3-ylsulfanyl]-benzoic acid]
12 | < 300 nM | Cc1c(Sc2cccc(CC(=O)O)c2)c2ccc(Cl)cc2n1-c1cnn(C)c1 [Compound 1-45, {3-[6-Chloro-2-methyl-1-(1-methyl-1H-pyrazol-4-yl)-1H-indol-3-ylsulfanyl]-phenyl}-acetic acid]
13 | > 1000 nM | Cc1c(Sc2cc(C(=O)O)cc(C(F)(F)F)c2)c2ccc(Cl)cc2n1-c1cccnc1 [Compound 1-46, 3-(6-Chloro-2-methyl-1-pyridin-3-yl-1H-indol-3-ylsulfanyl)-5-trifluoromethyl-benzoic acid]
14 | > 1000 nM | COc1ccc(CC(=O)O)cc1Sc1c(C)n(-c2cnn(C)c2)c2cc(Cl)ccc12 [Compound 1-47, {3-[6-Chloro-2-methyl-1-(1-methyl-1H-pyrazol-4-yl)-1H-indol-3-ylsulfanyl]-4-methoxy-phenyl}-acetic acid]
15 | < 300 nM | Cc1cncc(-n2c(C)c(Sc3cccc(CC(=O)O)c3)c3ccc(Cl)cc32)c1 [Compound 1-48, {3-[6-Chloro-2-methyl-1-(5-methyl-pyridin-3-yl)-1H-indol-3-ylsulfanyl]-phenyl}-acetic acid]
16 | < 300 nM | CCC(C(=O)O)c1cccc(Sc2c(C)n(-c3cccnc3)c3cc(Cl)ccc23)c1 (stereo not drawn) [Compound 1-49, 2-[3-(6-Chloro-2-methyl-1-pyridin-3-yl-1H-indol-3-ylsulfanyl)-phenyl]-butyric acid]
17 | > 1000 nM | Cc1ccc(C(=O)O)cc1Sc1c(C)n(-c2cnn(C)c2)c2cc(Cl)ccc12 [Compound 1-50, 3-[6-Chloro-2-methyl-1-(1-methyl-1H-pyrazol-4-yl)-1H-indol-3-ylsulfanyl]-4-methyl-benzoic acid]
18 | > 1000 nM | CCn1cc(-n2c(C)c(Sc3cc(Br)cc(C(=O)O)c3)c3ccc(Cl)cc32)cn1 [Compound 1-51, 3-Bromo-5-[6-chloro-1-(1-ethyl-1H-pyrazol-4-yl)-2-methyl-1H-indol-3-ylsulfanyl]-benzoic acid]

Row | IC50 | Compound
19 | > 1000 nM | CCn1cc(-n2c(C)c(Sc3cc(C)cc(C(=O)O)c3)c3ccc(Cl)cc32)cn1 [Compound 1-52, 3-[6-Chloro-1-(1-ethyl-1H-pyrazol-4-yl)-2-methyl-1H-indol-3-ylsulfanyl]-5-methyl-benzoic acid]
20 | > 1000 nM | Cc1c(Sc2cc(C(=O)O)cc(C(F)(F)F)c2)c2ccc(Cl)cc2n1-c1cnn(C)c1 [Compound 1-53, 3-[6-Chloro-2-methyl-1-(1-methyl-1H-pyrazol-4-yl)-1H-indol-3-ylsulfanyl]-5-trifluoromethyl-benzoic acid]
21 | > 1000 nM | Cc1ccc(C(=O)O)cc1Sc1c(C)n(-c2cccnc2)c2cc(Cl)ccc12 [Compound 1-54, 3-(6-Chloro-2-methyl-1-pyridin-3-yl-1H-indol-3-ylsulfanyl)-4-methyl-benzoic acid]
22 | < 300 nM | Cc1c(Sc2cccc(C(=O)O)c2)c2ccc(Cl)cc2n1-c1cnn(CC(F)(F)F)c1 [Compound 1-55, 3-{6-Chloro-2-methyl-1-[1-(2,2,2-trifluoro-ethyl)-1H-pyrazol-4-yl]-1H-indol-3-ylsulfanyl}-benzoic acid]
23 | < 300 nM | Cc1cncc(-n2c(C)c(Sc3cccc(C(=O)O)c3)c3ccc(Cl)cc32)c1 [Compound 1-56, 3-[6-Chloro-2-methyl-1-(5-methyl-pyridin-3-yl)-1H-indol-3-ylsulfanyl]-benzoic acid]
24 | < 300 nM | CCCn1cc(-n2c(C)c(Sc3cccc(C(=O)O)c3)c3ccc(Cl)cc32)cn1 [Compound 1-57, 3-[6-Chloro-2-methyl-1-(1-propyl-1H-pyrazol-4-yl)-1H-indol-3-ylsulfanyl]-benzoic acid]
25 | < 300 nM | Cc1c(Sc2cccc(C(=O)O)c2)c2ccc(Cl)cc2n1-c1cnn(-c2ccccc2)c1 [Compound 1-58, 3-[6-Chloro-2-methyl-1-(1-phenyl-1H-pyrazol-4-yl)-1H-indol-3-ylsulfanyl]-benzoic acid]
26 | < 300 nM | Cc1c(Sc2cccc(C(=O)O)c2)c2ccc(Cl)cc2n1-c1cnn(Cc2ccccc2)c1 [Compound 1-59, 3-[1-(1-Benzyl-1H-pyrazol-4-yl)-6-chloro-2-methyl-1H-indol-3-ylsulfanyl]-benzoic acid]
27 | < 300 nM | Cc1nn(C)cc1-n1c(C)c(Sc2cccc(C(=O)O)c2)c2ccc(Cl)cc21 [Compound 1-60, 3-[6-Chloro-1-(1,3-dimethyl-1H-pyrazol-4-yl)-2-methyl-1H-indol-3-ylsulfanyl]-benzoic acid]
28 | < 300 nM | COc1c(Sc2c(C)n(-c3cnn(C)c3)c3cc(Cl)ccc23)cccc1C(=O)O [Compound 1-61, 3-[6-Chloro-2-methyl-1-(1-methyl-1H-pyrazol-4-yl)-1H-indol-3-ylsulfanyl]-2-methoxy-benzoic acid]
29 | < 300 nM | CCn1cc(-n2c(C)c(Sc3cccc(C(=O)O)c3OC)c3ccc(Cl)cc32)cn1 [Compound 1-62, 3-[6-Chloro-2-methyl-1-(1-ethyl-1H-pyrazol-4-yl)-1H-indol-3-ylsulfanyl]-2-methoxy-benzoic acid]
30 | < 300 nM | Cc1c(Sc2c(C)n(-c3cnn(C)c3)c3cc(Cl)ccc23)cccc1C(=O)O [Compound 1-63, 3-[6-Chloro-2-methyl-1-(1-methyl-1H-pyrazol-4-yl)-1H-indol-3-ylsulfanyl]-2-methyl-benzoic acid]
31 | < 300 nM | CCn1cc(-n2c(C)c(Sc3cccc(C(=O)O)c3C)c3ccc(Cl)cc32)cn1 [Compound 1-64, 3-[6-Chloro-2-methyl-1-(1-ethyl-1H-pyrazol-4-yl)-1H-indol-3-ylsulfanyl]-2-methyl-benzoic acid]
32 | < 300 nM | Cc1cncc(-n2c(C)c(Sc3cccc(C(=O)O)c3C)c3ccc(Cl)cc32)c1 [Compound 1-65, 3-[6-Chloro-2-methyl-1-(5-methyl-pyridin-3-yl)-1H-indol-3-ylsulfanyl]-2-methyl-benzoic acid]
33 | < 300 nM | Cc1cncc(-n2c(C)c(Sc3cccc(C(=O)O)c3F)c3ccc(Cl)cc32)c1 [Compound 1-66, 3-[6-Chloro-2-methyl-1-(5-methyl-pyridin-3-yl)-1H-indol-3-ylsulfanyl]-2-fluoro-benzoic acid]
34 | < 300 nM | CCn1cc(-n2c(C)c(Sc3cccc(C(=O)O)c3F)c3ccc(Cl)cc32)cn1 [Compound 1-67, 3-[6-Chloro-2-methyl-1-(1-ethyl-1H-pyrazol-4-yl)-1H-indol-3-ylsulfanyl]-2-fluoro-benzoic acid]
35 | 300 to 1000 nM | Cc1ccc(-n2c(C)c(Sc3cccc(C(=O)O)c3)c3ccc(Cl)cc32)nn1 [Compound 1-68, 3-[6-Chloro-2-methyl-1-(6-methyl-pyridazin-3-yl)-1H-indol-3-ylsulfanyl]-benzoic acid]
36 | < 300 nM | CCn1cc(-n2c(C)c(Sc3cccc(CC(=O)O)c3)c3ccc(Cl)cc32)cn1 [Compound 1-69, {3-[6-Chloro-1-(1-ethyl-1H-pyrazol-4-yl)-2-methyl-1H-indol-3-ylsulfanyl]-phenyl}-acetic acid]
